Values joined by “and” are separate entries in the source; they are usually repeats but may differ in a detail not shown here. Equal entries are not always repeated. Toxic doses and inconclusive results are not listed. Rule as the data show it: active = T/C of 150% or more; inactive = T/C below 125%.
System: L1210 leukemia ip in BDF1 mice, survival T/C
Assay: NCI In Vivo Anticancer Drug Screen. Data for tumor model L1210 Leukemia (intraperitoneal) in B6D2F1 (BDF1) mice
Conditions: higher = longer survival
Summary of the method: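 Value reflects the ratio of survival in compound-treated mice to survival in vehicle-treated controls, with both groups carrying the same transplanted tumor.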

[1] = endpoint: mean survival time, dose: 100.0 mg/kg/injection, schedule: Q01DX009 (ip), vehicle: saline with Tween-80
[2] = endpoint: mean survival time, dose: 200.0 mg/kg/injection, schedule: Q01DX009 (ip), vehicle: saline with Tween-80
[3] = endpoint: mean survival time, dose: 400.0 mg/kg/injection, schedule: Q01DX009 (ip), vehicle: saline with Tween-80
[4] = endpoint: mean survival time, dose: 100.0 mg/kg/injection, schedule: Q01DX001 (ip), vehicle: Klucel (hydroxypropylcellulose) (HPC)
[5] = endpoint: mean survival time, dose: 200.0 mg/kg/injection, schedule: Q01DX001 (ip), vehicle: Klucel (hydroxypropylcellulose) (HPC)
[6] = endpoint: mean survival time, dose: 400.0 mg/kg/injection, schedule: Q01DX001 (ip), vehicle: Klucel (hydroxypropylcellulose) (HPC)
[7] = endpoint: mean survival time, dose: 75.0 mg/kg/injection, schedule: Q01DX001 (ip), vehicle: carboxymethylcellulose (CMC)
[8] = endpoint: mean survival time, dose: 150.0 mg/kg/injection, schedule: Q01DX001 (ip), vehicle: carboxymethylcellulose (CMC)
[9] = endpoint: mean survival time, dose: 300.0 mg/kg/injection, schedule: Q01DX001 (ip), vehicle: carboxymethylcellulose (CMC)
[10] = endpoint: mean survival time, dose: 25.0 mg/kg/injection, schedule: Q01DX009 (ip), vehicle: saline
[11] = endpoint: mean survival time, dose: 50.0 mg/kg/injection, schedule: Q01DX009 (ip), vehicle: saline
[12] = endpoint: mean survival time, dose: 100.0 mg/kg/injection, schedule: Q01DX001 (ip), vehicle: saline
[13] = endpoint: mean survival time, dose: 200.0 mg/kg/injection, schedule: Q01DX001 (ip), vehicle: saline
[14] = endpoint: mean survival time, dose: 400.0 mg/kg/injection, schedule: Q01DX001 (ip), vehicle: saline

Measured: T/C

CC(=O)Nc1ccc(NC(=S)Nc2ccc(NC(C)=O)cc2)cc1
inactive: endpoint: mean survival time, dose: 50.0 mg/kg/injection, schedule: Q01DX009 (ip), vehicle: Klucel (hydroxypropylcellulose) (HPC) 101 % of control | endpoint: mean survival time, dose: 100.0 mg/kg/injection, schedule: Q01DX009 (ip), vehicle: Klucel (hydroxypropylcellulose) (HPC) 104 % of control | endpoint: mean survival time, dose: 100.0 mg/kg/injection, schedule: Q04DX003 (ip), vehicle: Klucel (hydroxypropylcellulose) (HPC) 97 % of control | endpoint: mean survival time, dose: 200.0 mg/kg/injection, schedule: Q04DX003 (ip), vehicle: Klucel (hydroxypropylcellulose) (HPC) 93 % of control

O=[N+]([O-])/C=C/c1ccccc1Br
inactive: endpoint: mean survival time, dose: 18.75 mg/kg/injection, schedule: Q04DX003 (ip), vehicle: Klucel (hydroxypropylcellulose) (HPC) 96 % of control | endpoint: mean survival time, dose: 37.5 mg/kg/injection, schedule: Q04DX003 (ip), vehicle: Klucel (hydroxypropylcellulose) (HPC) 102 % of control | endpoint: mean survival time, dose: 75.0 mg/kg/injection, schedule: Q04DX003 (ip), vehicle: Klucel (hydroxypropylcellulose) (HPC) 104 % of control

CC(=O)OC1C(O)C(C)OC(OC2C(OC(=O)C3CCC4C(C3)OC3(CC(OC(=O)/C=C/c5ccccc5)C(C)CO3)C43CO3)OC(C)C(O)C2OC(C)=O)C1O (configuration not stated)
inactive: endpoint: median survival time, dose: 0.5 mg/kg/injection, schedule: Q01DX009 (ip), vehicle: distilled water + Tween-80 92 % of control | endpoint: median survival time, dose: 1.0 mg/kg/injection, schedule: Q01DX009 (ip), vehicle: distilled water + Tween-80 95 % of control | endpoint: median survival time, dose: 2.0 mg/kg/injection, schedule: Q01DX009 (ip), vehicle: distilled water + Tween-80 95 % of control | endpoint: median survival time, dose: 4.0 mg/kg/injection, schedule: Q01DX009 (ip), vehicle: distilled water + Tween-80 104 % of control | endpoint: median survival time, dose: 8.0 mg/kg/injection, schedule: Q01DX009 (ip), vehicle: distilled water + Tween-80 107 % of control | endpoint: median survival time, dose: 16.0 mg/kg/injection, schedule: Q01DX009 (ip), vehicle: distilled water + Tween-80 115 % of control | endpoint: median survival time, dose: 32.0 mg/kg/injection, schedule: Q01DX009 (ip), vehicle: distilled water + Tween-80 104 % of control

Oc1c(Cl)cc(Cl)cc1C=NCC1CCC(CN=Cc2cc(Cl)cc(Cl)c2O)CC1 (configuration not stated)
inactive: [1] 92 % of control | [2] 92 % of control | [3] 94 % of control

c1ccc(C2=NNc3cccc[n+]3C2)cc1
inactive: endpoint: mean survival time, dose: 75.0 mg/kg/injection, schedule: Q01DX001 (ip), vehicle: other 101 % of control

c1ccc2c(c1)CC1(Cc3ccccc3-2)C[N+]12CCCCC2
inactive: endpoint: mean survival time, dose: 12.5 mg/kg/injection, schedule: Q04DX003 (ip), vehicle: saline 98 % of control | endpoint: mean survival time, dose: 25.0 mg/kg/injection, schedule: Q04DX003 (ip), vehicle: saline 98 % of control | endpoint: mean survival time, dose: 50.0 mg/kg/injection, schedule: Q04DX003 (ip), vehicle: saline 110 % of control

Nc1ncnc(N)c1NC(=O)COc1ccc([N+](=O)[O-])cc1
inactive: [4] 102 % of control | [5] 94 % of control | [6] 100 % of control

CC(=O)[O][Hg][c]1cc(-c2ccc(N=Nc3c(S(=O)(=O)O)cc4cccc(N)c4c3O)cc2)ccc1N=Nc1c(S(=O)(=O)O)cc2cccc(N)c2c1O
inactive: endpoint: mean survival time, dose: 3.13 mg/kg/injection, schedule: Q01DX009 (ip), vehicle: saline with Tween-80 86 % of control | endpoint: mean survival time, dose: 6.25 mg/kg/injection, schedule: Q01DX009 (ip), vehicle: saline with Tween-80 86 % of control | endpoint: mean survival time, dose: 12.5 mg/kg/injection, schedule: Q01DX009 (ip), vehicle: saline with Tween-80 92 % of control

Nc1nc(N)c2c(n1)SCC(/C=N/O)=N2
inactive: [4] 108 % of control | [5] 95 % of control | [6] 97 % of control

O=C(O)c1cc(Cl)ccc1-c1ccc(Cl)cc1C(=O)Nc1ccc2c(c1)Cc1ccccc1-2
inactive: [7] 102 % of control | [8] 113 % of control | [9] 104 % of control

OC(CCCNc1ccccc1)CCCNc1ccccc1
inactive: endpoint: mean survival time, dose: 75.0 mg/kg/injection, schedule: Q01DX001 (ip), vehicle: saline 96 % of control | endpoint: mean survival time, dose: 150.0 mg/kg/injection, schedule: Q01DX001 (ip), vehicle: saline 91 % of control

O=[N+]([O-])c1ccccc1C(c1ccc2ccccc2c1O)N1CCOCC1 (configuration not stated)
inactive: endpoint: mean survival time, dose: 100.0 mg/kg/injection, schedule: Q01DX001 (ip), vehicle: saline sonified 86 % of control | endpoint: mean survival time, dose: 200.0 mg/kg/injection, schedule: Q01DX001 (ip), vehicle: saline sonified 91 % of control | endpoint: mean survival time, dose: 400.0 mg/kg/injection, schedule: Q01DX001 (ip), vehicle: saline sonified 90 % of control

O=C(NCCCCNC(=O)Nc1cccc(C2=NCCN2)c1)Nc1cccc(C2=NCCN2)c1
inactive: endpoint: mean survival time, dose: 12.0 mg/kg/injection, schedule: Q01DX Z (ip), vehicle: carboxymethylcellulose (CMC) 114 % of control | endpoint: mean survival time, dose: 23.0 mg/kg/injection, schedule: Q01DX Z (ip), vehicle: carboxymethylcellulose (CMC) 100 % of control | endpoint: mean survival time, dose: 46.0 mg/kg/injection, schedule: Q01DX Z (ip), vehicle: carboxymethylcellulose (CMC) 108 % of control

COC(=O)C1C2C=CC(C3C=CC32)C1C(=O)OC (configuration not stated)
inactive: endpoint: mean survival time, dose: 100.0 mg/kg/injection, schedule: Q04DX002 (ip), vehicle: Klucel (hydroxypropylcellulose) (HPC) 103 % of control | endpoint: mean survival time, dose: 200.0 mg/kg/injection, schedule: Q04DX002 (ip), vehicle: Klucel (hydroxypropylcellulose) (HPC) 97 % of control | endpoint: mean survival time, dose: 400.0 mg/kg/injection, schedule: Q04DX002 (ip), vehicle: Klucel (hydroxypropylcellulose) (HPC) 103 % of control

C1CCC(C2CCCC(C3CCCC[N-]3)[N-]2)[N-]C1.[Cl][Pt] (configuration not stated)
inactive: endpoint: mean survival time, dose: 12.5 mg/kg/injection, schedule: Q01DX009 (ip), vehicle: saline 102 % of control | [10] 98 % of control | [11] 104 % of control and 106 % of control

N#CC(C#N)=Cc1ccc(O)cc1
inactive: endpoint: mean survival time, dose: 5.0 mg/kg/injection, schedule: Q01DX001 (ip), vehicle: saline 105 % of control | endpoint: mean survival time, dose: 10.0 mg/kg/injection, schedule: Q01DX001 (ip), vehicle: saline 105 % of control | endpoint: mean survival time, dose: 20.0 mg/kg/injection, schedule: Q01DX001 (ip), vehicle: saline 92 % of control | endpoint: mean survival time, dose: 40.0 mg/kg/injection, schedule: Q01DX001 (ip), vehicle: saline 103 % of control | endpoint: mean survival time, dose: 80.0 mg/kg/injection, schedule: Q01DX001 (ip), vehicle: saline 97 % of control

CCOC(=O)c1ccccn1
inactive: [12] 98 % of control | [13] 98 % of control

COc1ccc(C2(O)c3ccccc3-c3ccccc32)cc1
inactive: [10] 98 % of control | [11] 93 % of control | endpoint: mean survival time, dose: 100.0 mg/kg/injection, schedule: Q01DX009 (ip), vehicle: saline 98 % of control | endpoint: mean survival time, dose: 200.0 mg/kg/injection, schedule: Q01DX009 (ip), vehicle: saline 101 % of control | endpoint: mean survival time, dose: 300.0 mg/kg/injection, schedule: Q01DX009 (ip), vehicle: saline 96 % of control | endpoint: mean survival time, dose: 400.0 mg/kg/injection, schedule: Q01DX009 (ip), vehicle: saline 95 % of control

Cn1c(=O)cc(C=Nc2ccc(C(=O)O)cc2)c2ccccc21
inactive: [12] 100 % of control | [13] 96 % of control | [14] 100 % of control

CC1(C)N=C(N)N=C(N)N1c1cccc(/C=C/C=C/c2cccc([N+](=O)[O-])c2)c1
inactive: [12] 100 % of control

Cc1cc([N+](=O)[O-])cc(S(=O)(=O)O)c1C
inactive: endpoint: mean survival time, dose: 50.0 mg/kg/injection, schedule: Q01DX009 (ip), vehicle: saline with Tween-80 102 % of control | [1] 98 % of control and 92 % of control | [2] 98 % of control and 106 % of control | [3] 98 % of control

CC(C)(C)NC(=O)CCC(=O)O
inactive: endpoint: mean survival time, dose: 75.0 mg/kg/injection, schedule: Q04DX002 (ip), vehicle: Klucel (hydroxypropylcellulose) (HPC) 89 % of control | endpoint: mean survival time, dose: 150.0 mg/kg/injection, schedule: Q04DX002 (ip), vehicle: Klucel (hydroxypropylcellulose) (HPC) 92 % of control | endpoint: mean survival time, dose: 300.0 mg/kg/injection, schedule: Q04DX002 (ip), vehicle: Klucel (hydroxypropylcellulose) (HPC) 100 % of control

CCc1ccccn1
inactive: [12] 100 % of control | [13] 102 % of control | [14] 95 % of control

S=P(NCc1cccc(CNP(=S)(N2CC2)N2CC2)c1)(N1CC1)N1CC1
inactive: [7] 98 % of control | [8] 98 % of control | [9] 93 % of control
